Laboratory results from US9855268B2, “Triazolo[4,5-d]pyrimidine derivatives” (Merck Patent GmbH, priority 2013, dated 2018).
pIC50: −log10 of the molar value. Counter-ions that a name gives are not always drawn.

Key:
GCN2 = GCN2 (Homo sapiens, UniProt Q9P2K8); assay: GCN2 enzyme assay (TR-FRET Lanthascreen, GFP-eIF2alpha phosphorylation); assay type: biochemical; settings: 10 μM ATP, 80 nM GFP-eIF2a, 30 nM GCN2
Summary of the method: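 Kinase reaction with 10 μM ATP and 80 nM GFP-labelled eIF2alpha substrate at room temperature, stopped with EDTA. Phospho-eIF2alpha detected by TR-FRET between antibody and GFP-substrate, excitation at 340 nm.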

GSK3α(h) = GSK3α(h) (Homo sapiens, UniProt P49840); assay: GSK3α radiometric kinase assay (33P-ATP, phospho GS2 peptide); assay type: biochemical; settings: read-out: IC50 GSK3α (enzyme assay)
Sequence of GSK3α(h) (P49840 whole entry): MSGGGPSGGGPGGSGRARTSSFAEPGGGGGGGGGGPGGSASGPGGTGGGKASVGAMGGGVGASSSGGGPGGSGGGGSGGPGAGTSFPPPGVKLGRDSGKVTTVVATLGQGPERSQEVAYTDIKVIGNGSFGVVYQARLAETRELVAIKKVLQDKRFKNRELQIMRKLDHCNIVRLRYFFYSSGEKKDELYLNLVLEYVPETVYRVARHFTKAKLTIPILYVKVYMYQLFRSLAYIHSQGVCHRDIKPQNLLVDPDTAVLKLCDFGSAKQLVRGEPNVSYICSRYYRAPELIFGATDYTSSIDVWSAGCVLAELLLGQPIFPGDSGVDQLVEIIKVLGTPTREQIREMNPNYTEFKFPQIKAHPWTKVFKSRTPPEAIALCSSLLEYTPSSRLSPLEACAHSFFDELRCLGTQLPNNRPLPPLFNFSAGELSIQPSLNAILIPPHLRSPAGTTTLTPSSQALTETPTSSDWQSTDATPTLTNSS
Description: GSK3α(h) is incubated with 8 mM MOPS pH 7,0, 0,2 mM EDTA, 20 μM
[…](p)EDEEE (phosphor GS2 peptide), 10 mM Mg-acetate and [gamma-33P-ATP](specific activity approx. 500 cpm/Pmol, concentration as required). The reaction is initiated by the addition of the MgATP. After incubation for 40 minutes at the room temperature, the Reaction is stopped by the addition of 3% phosphoric acid solution. 10 μL of reaction is then spotted onto a P30 filtermat and washed three times for 5 minutes in 50 mM phosphoric acid and once in methanol prior to drying and scintillation counting.

Sequence of GCN2 (Q9P2K8 whole entry, species assumed): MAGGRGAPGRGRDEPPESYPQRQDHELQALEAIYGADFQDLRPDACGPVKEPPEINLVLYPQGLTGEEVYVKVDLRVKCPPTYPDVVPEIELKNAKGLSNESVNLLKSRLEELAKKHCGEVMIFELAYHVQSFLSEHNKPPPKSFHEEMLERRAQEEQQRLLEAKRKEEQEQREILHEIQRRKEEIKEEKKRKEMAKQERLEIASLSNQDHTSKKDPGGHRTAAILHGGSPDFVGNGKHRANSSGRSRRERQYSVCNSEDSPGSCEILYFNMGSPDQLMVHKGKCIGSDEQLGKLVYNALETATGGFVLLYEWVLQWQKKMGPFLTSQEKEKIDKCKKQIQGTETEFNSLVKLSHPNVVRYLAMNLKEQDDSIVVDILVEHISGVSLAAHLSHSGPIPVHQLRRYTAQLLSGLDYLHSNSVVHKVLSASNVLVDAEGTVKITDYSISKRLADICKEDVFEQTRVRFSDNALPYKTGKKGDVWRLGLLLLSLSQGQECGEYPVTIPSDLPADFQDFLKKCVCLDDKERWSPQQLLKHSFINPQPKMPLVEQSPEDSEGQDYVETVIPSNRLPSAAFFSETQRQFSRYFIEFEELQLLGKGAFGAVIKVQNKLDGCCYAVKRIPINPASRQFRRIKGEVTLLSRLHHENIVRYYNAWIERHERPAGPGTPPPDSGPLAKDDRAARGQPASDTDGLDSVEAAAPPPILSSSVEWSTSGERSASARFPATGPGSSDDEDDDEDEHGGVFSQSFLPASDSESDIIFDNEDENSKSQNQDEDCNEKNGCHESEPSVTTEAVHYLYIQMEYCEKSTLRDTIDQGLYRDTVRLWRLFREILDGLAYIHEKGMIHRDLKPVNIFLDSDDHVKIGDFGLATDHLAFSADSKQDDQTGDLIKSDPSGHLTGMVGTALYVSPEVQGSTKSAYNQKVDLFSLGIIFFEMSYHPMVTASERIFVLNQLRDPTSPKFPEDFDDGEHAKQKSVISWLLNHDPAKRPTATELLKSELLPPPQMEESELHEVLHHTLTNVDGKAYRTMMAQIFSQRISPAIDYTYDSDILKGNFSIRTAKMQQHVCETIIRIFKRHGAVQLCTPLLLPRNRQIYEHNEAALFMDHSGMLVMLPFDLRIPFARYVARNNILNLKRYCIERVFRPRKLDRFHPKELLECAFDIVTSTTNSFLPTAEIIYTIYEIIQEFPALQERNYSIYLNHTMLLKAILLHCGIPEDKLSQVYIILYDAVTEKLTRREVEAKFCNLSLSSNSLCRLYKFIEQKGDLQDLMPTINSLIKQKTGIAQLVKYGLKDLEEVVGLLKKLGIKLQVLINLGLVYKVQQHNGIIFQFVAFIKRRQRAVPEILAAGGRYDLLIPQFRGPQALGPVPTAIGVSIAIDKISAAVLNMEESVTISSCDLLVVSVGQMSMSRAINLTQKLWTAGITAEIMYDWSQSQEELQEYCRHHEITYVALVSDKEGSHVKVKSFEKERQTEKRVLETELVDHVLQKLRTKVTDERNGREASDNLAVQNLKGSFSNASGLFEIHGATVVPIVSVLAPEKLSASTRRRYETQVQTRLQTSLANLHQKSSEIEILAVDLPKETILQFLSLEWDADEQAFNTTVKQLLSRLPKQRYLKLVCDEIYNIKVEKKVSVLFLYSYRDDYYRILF

SMILES	pIC50 (GCN2)	pIC50 (GSK3α(h))
COc1ccc(-n2nnc3cnc(N[C@H]4CC[C@H](CO)C4)nc32)cc1 [A111, {(1S,3S)-3-[3-(4-methoxy-phenyl)-3H-[1,2,3]triazolo[4,5-d]pyrimidin-5-ylamino]-cyclopentyl}-methanol]	> 6.00	> 6.00
NC(=O)[C@H]1CC[C@@H](Nc2ncc3nnn(-c4ccc5nsnc5c4)c3n2)C1 [A172, (1S,3R)-3-(3-benzo[1,2,5]thiadiazol-5-yl-3H-[1,2,3]triazolo[4,5-d]pyrimidin-5-ylamino)-cyclopentanecarboxylic acid amide]	> 6.00	> 6.00
COc1ccc(-n2nnc3cnc(N[C@H]4CC[C@H](C(N)=O)CC4)nc32)cc1 [A143, 4-[3-(4-methoxy-phenyl)-3H-[1,2,3]triazolo[4,5-d]pyrimidin-5-ylamino]-cyclohexanecarboxylic acid amide]	> 6.00	> 6.00
O[C@@H]1CC[C@@H](Nc2ncc3nnn(-c4ccc(-c5cnn(CCc6nnn[nH]6)c5)cc4)c3n2)C1 (relative stereo) [A266, trans-3-[3-(4-{1-[2-(1H-Tetrazol-5-yl)-ethyl]-1H-pyrazol-4-yl}-phenyl)-3H-[1,2,3]triazolo[4,5-d]pyrimidin-5-ylamino]-cyclopentanol]	> 6.00	> 6.00
Cc1nc2ccc(-n3nnc4cnc(N[C@@H]5CC[C@@H](O)C5)nc43)cc2o1 (relative stereo) [A199]	> 6.00	> 6.00
NC(=O)[C@@H]1CC[C@@H](Nc2ncc3nnn(-c4cccc(I)c4)c3n2)C1 [A176, (1R,3R)-3-[3-(3-iodo-phenyl)-3H-[1,2,3]triazolo[4,5-d]pyrimidin-5-ylamino]-cyclopentanecarboxylic acid amide]	> 6.00	> 6.00
COc1ccc(-n2nnc3cnc(NCCCC(N)=O)nc32)cc1 [A142, 4-[3-(4-methoxy-phenyl)-3H-[1,2,3]triazolo[4,5-d]pyrimidin-5-ylamino]-butyramide]	> 6.00	> 6.00
NC(=O)[C@H]1CC[C@@H](Nc2ncc3nnn(-c4ccc(N5CCCC5)cc4)c3n2)C1 [A138, (1S,3R)-3-[3-(4-pyrrolidin-1-yl-phenyl)-3H-[1,2,3]triazolo[4,5-d]pyrimidin-5-ylamino]-cyclopentanecarboxylic acid amide]	> 6.00	> 6.00
COc1ccc(-n2nnc3cnc(N[C@@H]4CCN(C(=O)CCN5CCN(C)CC5)C4)nc32)cc1 [A132, 1-{(R)-3-[3-(4-methoxy-phenyl)-3H-[1,2,3]triazolo[4,5-d]pyrimidin-5-ylamino]-pyrrolidin-1-yl}-3-(4-methyl-piperazin-1-yl)-propan-1-one]	> 6.00	> 6.00
Cn1cc(-c2ccc(-n3nnc4cnc(N[C@@H]5CCN(C(=O)CCCN6CCNCC6)C5)nc43)cc2)cn1 [A271, 1-((R)-3-{3-[4-(1-methyl-1H-pyrazol-4-yl)-phenyl]-3H-[1,2,3]triazolo[4,5-d]pyrimidin-5-ylamino}-pyrrolidin-1-yl)-4-piperazin-1-yl-butan-1-one]	> 6.00	> 6.00
COc1ccc(-n2nnc3cnc(N[C@H]4CC[C@@H](S(C)(=O)=O)C4)nc32)cc1 (relative stereo) [A264, ((cis)-3-methanesulfonyl-cyclopentyl)-[3-(4-methoxy-phenyl)-3H-[1,2,3]triazolo[4,5-d]pyrimidin-5-yl]-amine]	> 6.00	> 6.00
O[C@@H]1CC[C@@H](Nc2ncc3nnn(-c4ccc(N5CCCC5)cc4)c3n2)C1 (relative stereo) [A198, (trans)-3-[3-(4-pyrrolidin-1-yl-phenyl)-3H-[1,2,3]triazolo[4,5-d]pyrimidin-5-ylamino]-cyclopentanol]	> 6.00	> 6.00
COc1ccc(-n2nnc3cnc(N[C@H]4CCNC4)nc32)cc1 [A77, [3-(4-methoxy-phenyl)-3H-[1,2,3]triazolo[4,5-d]pyrimidin-5-yl]-(S)-pyrrolidin-3-yl-amine hydrochloride]	5.00 to 5.30	–
Cn1cc(-c2ccc(-n3nnc4cnc(N[C@H]5CC[C@H](O)C5)nc43)nc2)cn1 (relative stereo) [A94, trans-3-{3-[5-(1-methyl-1H-pyrazol-4-yl)-pyridin-2-yl]-3H-[1,2,3]triazolo[4,5-d]pyrimidin-5-ylamino}-cyclopentanol]	> 6.00	–
CCOc1ccc(-n2nnc3cnc(NCCc4cn[nH]c4)nc32)cc1 [B9, [3-(4-ethoxy-phenyl)-3H-[1,2,3]triazolo[4,5-d]pyrimidin-5-yl]-[2-(1H-pyrazol-4-yl)-ethyl]-amine]	> 6.00	–
COc1ccc(-n2nnc3cnc(N[C@H]4C[C@H](NC(=O)OC(C)(C)C)C4)nc32)cc1 [A32, {trans-3-[3-(4-methoxy-phenyl)-3H-[1,2,3]triazolo[4,5-d]pyrimidin-5-ylamino]-cyclobutyl}-carbamic acid tert-butyl ester]	> 6.00	–

SMILES	pIC50 (GCN2)	pIC50 (GSK3α(h))
COc1ccc(-n2nnc3cnc(N[C@@H]4CCNC4)nc32)cc1 [A69, [3-(4-methoxy-phenyl)-3H-[1,2,3]triazolo[4,5-d]pyrimidin-5-yl]-(R)-pyrrolidin-3-yl-amine hydrochloride]	5.30 to 6.00	–
COc1ccc(-n2nnc3cnc(N[C@H]4CC[C@H](NC(=O)OC(C)(C)C)C4)nc32)cc1 (racemic) [A35, {trans-3-[3-(4-methoxy-phenyl)-3H-[1,2,3]triazolo[4,5-d]pyrimidin-5-ylamino]-cyclopentyl}-carbamic acid tert-butyl ester]	5.00 to 5.30	–
COc1ccc(-n2nnc3cnc(N[C@H]4CC[C@H](CCO)CC4)nc32)cc1 [A72, trans-2-{4-[3-(4-methoxy-phenyl)-3H-[1,2,3]triazolo[4,5-d]pyrimidin-5-ylamino]-cyclohexyl}-ethanol]	> 6.00	–
COc1ccc(-n2nnc3cnc(N[C@H]4C[C@@H](N)C4)nc32)cc1 [A31, cis-N-[3-(4-methoxy-phenyl)-3H-[1,2,3]triazolo[4,5-d]pyrimidin-5-yl]-cyclobutane-1,3-diamine hydrochloride]	5.30 to 6.00	–
COc1ccc(-n2nnc3cnc(NC4CC(C)(C)NC(C)(C)C4)nc32)cc1 [A17, [3-(4-methoxy-phenyl)-3H-[1,2,3]triazolo[4,5-d]pyrimidin-5-yl]-(2,2,6,6-tetramethyl-piperidin-4-yl)-amine]	5.00 to 5.30	–
COc1ccc(-n2nnc3cnc(NC(C)C)nc32)cc1 [A2, Isopropyl-[3-(4-methoxy-phenyl)-3H-[1,2,3]triazolo[4,5-d]pyrimidin-5-yl]-amine]	> 6.00	–
COc1ccc(-n2nnc3cnc(NC4CCN(CCN5CCOCC5)CC4)nc32)cc1 [A78, [3-(4-methoxy-phenyl)-3H-[1,2,3]triazolo[4,5-d]pyrimidin-5-yl]-[1-(2-morpholin-4-yl-ethyl)-piperidin-4-yl]-amine]	5.30 to 6.00	–
O=C(O)CCOc1ccc(-n2nnc3cnc(NCCCn4cc([N+](=O)[O-])cn4)nc32)cc1 [A46, 3-(4-{5-[3-(4-nitro-pyrazol-1-yl)-propylamino]-[1,2,3]triazolo[4,5-d]-pyrimidin-3-yl}-phenoxy)-propionic acid]	> 6.00	–
COc1ccc(-n2nnc3cnc(N[C@@H]4CC[C@H](c5ncc(C)o5)C4)nc32)cc1 [A267, [3-(4-methoxy-phenyl)-3H-[1,2,3]triazolo[4,5-d]pyrimidin-5-yl]-[(1R,3S)-3-(5-methyl-oxazol-2-yl)-cyclopentyl]-amine]	> 6.00	–
COc1ccc(-n2nnc3cnc(NC4C5CNCC54)nc32)cc1 (centres unmarked) [A37, (3-aza-bicyclo[3.1.0]hex-6-yl)-[3-(4-methoxy-phenyl)-3H-[1,2,3]triazolo[4,5-d]pyrimidin-5-yl]-amine hydrochloride]	5.00 to 5.30	–
COc1ccc(-n2nnc3cnc(NC4CCN(C)CC4)nc32)cc1 [A18, [3-(4-methoxy-phenyl)-3H-[1,2,3]triazolo[4,5-d]pyrimidin-5-yl]-(1-methyl-piperidin-4-yl)-amine]	5.30 to 6.00	–
COc1ccc(-n2nnc3cnc(N[C@@H]4CCN(C(=O)OC(C)(C)C)C4)nc32)cc1 [A65, (R)-3-[3-(4-methoxy-phenyl)-3H-[1,2,3]triazolo[4,5-d]pyrimidin-5-ylamino]-pyrrolidine-1-carboxylic acid tert-butyl ester]	5.30 to 6.00	–
N[C@H]1CC[C@H](Nc2ncc3nnn(-c4ccc(N5CCCC5=O)cc4)c3n2)CC1 [A71, 1-{4-[5-((trans)-4-amino-cyclohexylamino)-[1,2,3]triazolo[4,5-d]pyrimidin-3-yl]-phenyl}-pyrrolidin-2-one]	> 6.00	–
Cc1ccc2cc(-n3nnc4cnc(N[C@@H]5CCNC5)nc43)ccc2n1 [A126, [3-(2-methyl-quinolin-6-yl)-3H-[1,2,3]triazolo[4,5-d]pyrimidin-5-yl]-(R)-pyrrolidin-3-yl-amine]	> 6.00	–
COc1c(F)cc(-n2nnc3cnc(N[C@@H]4CC[C@@H](C(N)=O)C4)nc32)cc1F [A163, (1R,3R)-3-[3-(3,5-difluoro-4-methoxy-phenyl)-3H-[1,2,3]triazolo[4,5-d]pyrimidin-5-ylamino]-cyclopentanecarboxylic acid amide]	> 6.00	–
COCCn1cc(-c2ccc(-n3nnc4cnc(N[C@H]5CC[C@H](O)C5)nc43)cn2)cn1 (relative stereo) [A234, (trans)-3-(3-{6-[1-(2-methoxy-ethyl)-1H-pyrazol-4-yl]-pyridin-3-yl}-3H-[1,2,3]triazolo[4,5-d]pyrimidin-5-ylamino)-cyclopentanol]	> 6.00	–
